Laboratory results reported in patent EP0463173B1, “HAIR TONIC AND DRESSING COMPOSITION” (OTSUKA PHARMACEUTICAL CO., LTD., priority 1990, dated 1991).

Test system: shaved mice
Assay: Hair grow-promoting effect in shaved mice (method of Kubo et al.), hair grow score
Type: in vivo, ddy male mice
Details: 0.2 ml of 0.2 % solution in 75 % ethanol applied to shaved back once a day, score 0-4, 15 mice
Method: According to the method of Kubo et al. (Yakugaku Zasshi 108 (10) P971-978 (1988)), an experiment was conducted using six weeks old ddy male mice. Depilatory cream was applied to the back of mice, and after 8 minutes, wiped off with absorbent cotton soaked with hot water at 40°C to remove hair at 4 to 5 cm². The next day, those mice with no injury and undepilated hair were selected and used as shaved mice. Each experimental group consisted of 15 mice.
Each 0.2 ml of a solution to be tested and a control solution were uniformly applied to the shaved part of mice with a brush once a day for 18 days.
Evaluation of the hair grow-promoting effect was conducted by evaluating a hair grow score at two day intervals for 18 days and testing a significance difference with Willcoxon Rank sum test. The following hair grow score standards were employed: 0: Completely no growth of hair is observed with naked eye 1: Recovery up to 25 % of normal state 2: Recovery up to 50 % of normal state 3: Recovery up to 75 % of normal state 4: Recovery up to nearly normal state and each standard score were further subdivided into three stages and hair grow score was obtained for each mouse.
The samples used for testing for effect were as follows: Control: 75 % etanol solution Preparation of the present invention: 0.2 % 6-[4-(1-cyclohexyl-1,2,3,4-tetrazol-5-yl)butoxy]-3,4-dihydrocarbostyril in 75 % ethanol solution The results are shown in Table 1.

O=C1CCc2cc(OCCCCc3nnnn3C3CCCCC3)ccc2N1 [Prep. of invention, 6-[4-(1-cyclohexyl-1,2,3,4-tetrazol-5-yl)butoxy]-3,4-dihydrocarbostyril]
mean hair grow score ± S.E. (day 8 of treatment): 0.12±0.07 | mean hair grow score ± S.E. (day 10 of treatment): 0.17±0.07 | mean hair grow score ± S.E. (day 12 of treatment): 0.72±0.17 | mean hair grow score ± S.E. (day 14 of treatment): 1.45±0.23 | mean hair grow score ± S.E. (day 16 of treatment): 2.25±0.27 | mean hair grow score ± S.E. (day 18 of treatment): 2.58±0.28
